The target in this data set is P-glycoprotein 1 and 3 (MDR1a/MDR1b) (Mus musculus, UniProt P21447+P06795). Description: TP_TRANSPORTER: increase in brain concentration in mdr1a/1b(-/-) mouse. The format is functional, organism-based. Conditions: in vivo.

`COc1ccc(N(C)S(C)(=O)=O)cc1CN[C@H]1CCCN[C@H]1c1ccccc1`: the Activity entry was “substrate [+]”.

The values above are taken from ChEMBL document CHEMBL2074263, “P-glycoprotein efflux at the blood-brain barrier mediates differences in brain disposition and pharmacodynamics between two structurally related neurokinin-1 receptor antagonists” (J Pharmacol Exp Ther, 2001).
